Assay results: US12178223B2, “Insect life cycle interruption agent(LCIA) formulations and their manufacture and use” (priority 2020, dated 2024)
Several values for one entry are separate records, joined by “and”; a condition that tells them apart may be missing. Identical values can stand only once. Marks after values point to notes of the source that are not given here.

How the values were obtained:
[1] = system: young fly larvae (stage 1); assay: Insecticidal activity in manure of hens fed Cyromazine products (Example 14); type: in vivo; details: Cyromazine in feed 5 PPM
Protocol: (§1) Twenty four Lohman laying hens were placed in conventional layer cages (2 birds per cage) and divided into 6 experimental groups of 4 birds per group.
(§2) The hens were fed for three weeks with laying hens feed (17.5% protein, no AGP) supplemented with a Cyromazine product as summarized in Table 12.
After three weeks of feeding according to the experimental groups of example 3, manure was collected from each group of hens. The manure was frozen for 48 hours to destroy any insects present and then thawed.
For each experimental group, 5 cups containing 100 g thawed manure were prepared (70-75% moisture). Each cup represents a group replicate.
Thirty young fly larvae (stage 1) were placed in each cup and incubated in an insectarium for 10 days. After ten days the pupae/larvae/flies were counted. Analysis of variance was done using a One Way Anova test and the comparison of means was done with Tukey-Kramer test, significance level-α=0.05.

[2] = Cyromazine residue in eggs (Example 15); set-up: species or system Lohman laying hens; details: female, Lohman, chicken, in vivo
Excerpt: as §1, §2
After four weeks of feeding according to the experimental groups of example 13, eggs were collected.
For each treatment 16 eggs were collected (4 eggs from each hen). The contents of the 4 eggs (without the shell) of each bird were pooled in one container marked to indicate the treatment. Each container was a sample. A total of 4 tests were performed for each treatment. The containers were packed in a temperature-controlled pack that was sent for Cyromazine analysis to Eurofines laboratory in Germany.
Samples are weighed and one or more samples is spiked with an internal standard.
Acetonitrile is added and the sample is vortexed. Petroleum ether is added and a liquid/liquid extraction is performed in a shaker followed by centrifugation. An aliquot of the acetonitrile phase is removed and reduced in volume to near dryness then resolved by adding water and methanol. The mixture is vortexed then filtered by membrane filter and analyzed—Liquid chromatographic determination with LC-MS/MS. Quantitation is via comparison with samples spiked with an internal standard.

## Nc1nc(N)nc(NC2CC2)n1 [NGNEC, Cyromazine]
[1]
  Dead larvae and pupas %: 0%
  Normal pupa %: 0^b %
  Survival rate = (No of flies + normal pupas)/30*100: 0% and 0^b %
[1]; 10 days
  Flies %: 0^b %
[2]
  concentration at 4 weeks: 88 ng/g
[2]; 4 weeks
  Cyromazine in eggs, % of Larvadex 0.5% group: 102%
